Results as given in patent US11691949B2, “Quinoline sulfonamide compounds and their use as antibacterial agents” (OTAGO INNOVATION LIMITED, priority 2017, dated 2023).
≈ marks a conversion by molar mass, not a printed value. Structures can show the parent of a compound that is named as a salt. Where two headings read alike, the source gives them in different places.

Assays:
Assay type in all cases: cell-based
[1] = test system: S. aureus ATCC 6538; assay: MBC by Miles-Misra drop-plate method, S. aureus; conditions: Staphylococcus aureus
Protocol: (§1) Antibacterial susceptibility testing was performed in triplicate (biological) by measuring minimum inhibitory concentrations (MICs) by broth microdilution in 96-well flat bottom microtiter plates (ThermoFisher Scientific, New Zealand). S. uberis ATCC 19436, S. aureus ATCC 6538, or E. coli ATCC 10596 cells grown overnight were diluted to an OD600 of approximately 0.025, so that the final concentration of cells in the MIC assay was approximately 5×10^5 cfu/mL in media as follows: S. uberis; Todd Hewitt Broth (THB), S. aureus; Tryptic Soy Broth (TSB) and Cation Adjusted Muller Hinton Broth (CAMHB), and E. coli; Lysogeny Borth (LB) and CAMHB, before being dispensed into microtiter wells. As required additional sterile Zinc Sulphate (Heptahydrate) was supplemented into the media, so the final concentration was 50 μM. Test compounds were added to starting wells and two-fold serial dilutions were undertaken to generate a range of inhibitor concentrations at a final volume of 200 μl. Media and test compound-free (untreated) controls were included in each microtiter plate in triplicate. After 24 h incubation at 37° C. and 200 rpm, the OD600 of wells were read using a Varioskan Flash plate reader (ThermoFisher Scientific, New Zealand). The MIC was reported as the lowest concentration of the test compound for which no growth occurred, as determined by OD600 readings. The minimum bactericidal concentration (MBC) was determined using the Miles-Misra drop-plate method to measure the viability of cells in response to test compound challenge.

[2] = test system: S. uberis ATCC 19436; assay: MBC by Miles-Misra drop-plate method, S. uberis; conditions: Streptococcus uberis
Protocol: as §1

[3] = test system: E. coli ATCC 10596; assay: MIC by broth microdilution, E. coli; conditions: Escherichia coli
Summary of the method: (§2)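 Overnight cultures diluted to ~5×10^5 cfu/mL final; S. aureus in TSB and CAMHB, E. coli in LB and CAMHB, zinc sulphate to 50 μM final as required; two-fold serial dilutions. MIC = lowest concentration with no growth by OD600 after 24 h, 37° C, 200 rpm. MBC by Miles-Misra drop-plate viability count.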

[4] = test system: E. coli ATCC 10536; assay: MBC by Miles-Misra drop-plate method, E. coli; conditions: Escherichia coli
Protocol: as §1

[5] = test system: S. uberis ATCC 19436; assay: MIC by broth microdilution, S. uberis; conditions: Streptococcus uberis
Summary of the method: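 Streptococcus uberis ATCC 19436 was tested in Todd Hewitt Broth by broth microdilution in 96-well flat bottom plates, in biological triplicate. Overnight cells were diluted to OD600 of approximately 0.025, giving about 5×10^5 cfu/mL in the wells. Compounds were serially diluted two-fold to 200 μl, incubated 24 h at 37° C. and 200 rpm, and the MIC was taken from OD600.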

[6] = test system: S. aureus ATCC 6538; assay: MIC by broth microdilution, S. aureus; conditions: Staphylococcus aureus
Summary of the method: as §2

[7] = ATCC6538, read-out: S. aureus ATCC 6538 MBC, No Zinc
[8] = ATCC6538, read-out: S. aureus ATCC 6538 MBC, Zinc (50 μM)
[9] = ATCC19436, read-out: S. uberis ATCC 19436 MBC, No Zinc
[10] = ATCC19436, read-out: S. uberis ATCC 19436 MBC, Zinc (50 μM)
[11] = ATCC 10536 / ATCC 10596, read-out: E. coli ATCC 10536 MIC, No Zinc
[12] = ATCC 10536 / ATCC 10596, read-out: E. coli ATCC 10536 MIC, Zinc (50 μM)
[13] = ATCC10536, read-out: E. coli ATCC 10536 MBC, No Zinc
[14] = ATCC10536, read-out: E. coli ATCC 10536 MBC, Zinc (50 μM)
[15] = ATCC19436, read-out: S. uberis ATCC 19436 MIC, No Zinc
[16] = ATCC19436, read-out: S. uberis ATCC 19436 MIC, Zinc (50 μM)
[17] = ATCC6538, read-out: S. aureus ATCC 6538 MIC, No Zinc
[18] = ATCC6538, read-out: S. aureus ATCC 6538 MIC, Zinc (50 μM)
[19] = ATCC6538, No Zinc, read-out: S. aureus ATCC 6538 MBC
[20] = ATCC6538, Zinc (50 μM), read-out: S. aureus ATCC 6538 MBC
[21] = ATCC19436, No Zinc, read-out: S. uberis ATCC 19436 MBC
[22] = ATCC19436, Zinc (50 μM), read-out: S. uberis ATCC 19436 MBC
[23] = ATCC 10536 / ATCC 10596, No Zinc, read-out: E. coli ATCC 10536 MIC
[24] = ATCC 10536 / ATCC 10596, Zinc (50 μM), read-out: E. coli ATCC 10536 MIC
[25] = ATCC10536, No Zinc, read-out: E. coli ATCC 10536 MBC
[26] = ATCC10536, Zinc (50 μM), read-out: E. coli ATCC 10536 MBC
[27] = ATCC19436, No Zinc, read-out: S. uberis ATCC 19436 MIC
[28] = ATCC19436, Zinc (50 μM), read-out: S. uberis ATCC 19436 MIC
[29] = ATCC6538, No Zinc, read-out: S. aureus ATCC 6538 MIC
[30] = ATCC6538, Zinc (50 μM), read-out: S. aureus ATCC 6538 MIC

O=S(=O)(Nc1cccc2ccc(CNCCCN3CCCCC3)nc12)c1ccc(C(F)(F)F)cc1 [ZDR115, N-(2-(((3-(Piperidin-1-yl)propyl)amino)methyl)quinolin-8-yl)-4-(trifluoromethyl)benzenesulfonamide di-trifluoroacetate]
MBC [1, 7]: 16 µg/mL (≈ 31.6 µM)
MBC [1, 8]: 16 µg/mL (≈ 31.6 µM)
MBC [2, 9]: 8 µg/mL (≈ 15.8 µM)
MBC [2, 10]: 4 µg/mL (≈ 7.9 µM)
MIC [3, 11]: 16 µg/mL (≈ 31.6 µM)
MIC [3, 12]: 16 µg/mL (≈ 31.6 µM)
MBC [4, 13]: 16 µg/mL (≈ 31.6 µM)
MBC [4, 14]: 16 µg/mL (≈ 31.6 µM)
MIC [5, 15]: 4 µg/mL (≈ 7.9 µM)
MIC [5, 16]: 2 µg/mL (≈ 3.95 µM)
MIC [6, 17]: 16 µg/mL (≈ 31.6 µM)
MIC [6, 18]: 16 µg/mL (≈ 31.6 µM)

O=S(=O)(Nc1cccc2ccc(CNC(CO)(CO)CO)nc12)c1ccc(C(F)(F)F)cc1 [ZDR102, N-(2-(((1,3-Dihydroxy-2-(hydroxymethyl)propan-2-yl)amino)methyl)quinolin-8-yl)-4-(trifluoromethyl)benzenesulfonamide]
MBC [1, 19]: 128 µg/mL (≈ 264 µM)
MBC [1, 20]: 32 µg/mL (≈ 65.9 µM)
MBC [2, 21]: 32 µg/mL (≈ 65.9 µM)
MBC [2, 22]: 16 µg/mL (≈ 33 µM)
MIC [3, 23]: 256 µg/mL (≈ 527 µM)
MIC [3, 24]: 64 µg/mL (≈ 132 µM)
MBC [4, 25]: 256 µg/mL (≈ 527 µM)
MBC [4, 26]: > 256 µg/mL
MIC [5, 27]: 32 µg/mL (≈ 65.9 µM)
MIC [5, 28]: 16 µg/mL (≈ 33 µM)
MIC [6, 29]: 32 µg/mL (≈ 65.9 µM)
MIC [6, 30]: 16 µg/mL (≈ 33 µM)

N=C(N)NCCNCc1ccc2cccc(NS(=O)(=O)c3ccc(C(F)(F)F)cc3)c2n1 [ZDR143, N-(2-(((2-Guanidinoethyl)amino)methyl)quinolin-8-yl)-4-(trifluoromethyl)benzenesulfonamide di-trifluoroacetate]
MBC [1, 7]: 16 µg/mL (≈ 34.3 µM)
MBC [1, 8]: 16 µg/mL (≈ 34.3 µM)
MBC [2, 9]: 8 µg/mL (≈ 17.1 µM)
MBC [2, 10]: 8 µg/mL (≈ 17.1 µM)
MIC [3, 11]: 16 µg/mL (≈ 34.3 µM)
MIC [3, 12]: 16 µg/mL (≈ 34.3 µM)
MBC [4, 13]: 32 µg/mL (≈ 68.6 µM)
MBC [4, 14]: 32 µg/mL (≈ 68.6 µM)
MIC [5, 15]: 8 µg/mL (≈ 17.1 µM)
MIC [5, 16]: 4 µg/mL (≈ 8.57 µM)
MIC [6, 17]: 8 µg/mL (≈ 17.1 µM)
MIC [6, 18]: 8 µg/mL (≈ 17.1 µM)

CN(C)CCCNC(=O)CNCc1ccc2cccc(NS(=O)(=O)c3ccc(C(F)(F)F)cc3)c2n1 [ZDR261, N-(3-(Dimethylamino)propyl)-2-(((8-((4-(trifluoromethyl)phenyl)sulfonamido)quinolin-2-yl)methyl)amino)acetamide di-trifluoroacetate]
MBC [1, 7]: 128 µg/mL (≈ 244 µM)
MBC [1, 8]: 64 µg/mL (≈ 122 µM)
MBC [2, 9]: 16 µg/mL (≈ 30.6 µM)
MBC [2, 10]: 16 µg/mL (≈ 30.6 µM)
MIC [3, 11]: 64 µg/mL (≈ 122 µM)
MIC [3, 12]: 64 µg/mL (≈ 122 µM)
MBC [4, 13]: > 256 µg/mL
MBC [4, 14]: > 256 µg/mL
MIC [5, 15]: 32 µg/mL (≈ 61.1 µM)
MIC [5, 16]: 16 µg/mL (≈ 30.6 µM)
MIC [6, 17]: 32 µg/mL (≈ 61.1 µM)
MIC [6, 18]: 32 µg/mL (≈ 61.1 µM)

O=S(=O)(Nc1cccc2ccc(CNCCN3CCCCC3)nc12)c1ccc(C(F)(F)F)cc1 [ZDR111, N-(2-(((2-(Piperidin-1-yl)ethyl)amino)methyl)quinolin-8-yl)-4-(trifluoromethyl)benzenesulfonamide]
MBC [1, 19]: 16 µg/mL (≈ 32.5 µM)
MBC [1, 20]: 16 µg/mL (≈ 32.5 µM)
MBC [2, 21]: 8 µg/mL (≈ 16.2 µM)
MBC [2, 22]: 1 µg/mL (≈ 2.03 µM)
MIC [3, 23]: 64 µg/mL (≈ 130 µM)
MIC [3, 24]: > 256 µg/mL
MBC [4, 25]: > 256 µg/mL
MBC [4, 26]: > 256 µg/mL
MIC [5, 27]: 8 µg/mL (≈ 16.2 µM)
MIC [5, 28]: 0.5 µg/mL (≈ 1.02 µM)
MIC [6, 29]: 16 µg/mL (≈ 32.5 µM)
MIC [6, 30]: 16 µg/mL (≈ 32.5 µM)

O=C(N/N=C/c1ccc2cccc(NS(=O)(=O)c3ccc(C(F)(F)F)cc3)c2n1)C1CCCNC1 (mixture of isomers) [ZDR124, (E/Z)—N-(2-((2-(Piperidine-3-carbonyl)hydrazineylidene)methyl)quinolin-8-yl)-4-(trifluoromethyl)benzenesulfonamide trifluoroacetate]
MBC [1, 7]: > 256 µg/mL
MBC [1, 8]: > 256 µg/mL
MBC [2, 9]: 16 µg/mL
MBC [2, 10]: 16 µg/mL
MIC [3, 23]: 128 µg/mL
MIC [3, 24]: 32 µg/mL
MBC [4, 13]: 128 µg/mL
MBC [4, 14]: 32 µg/mL
MIC [5, 27]: 32 µg/mL
MIC [5, 28]: 16 µg/mL
MIC [6, 29]: 16 µg/mL
MIC [6, 30]: 16 µg/mL

CC(=O)N/N=C/c1ccc2cccc(NS(=O)(=O)c3ccc(C(F)(F)F)cc3)c2n1 [ZDR120, (E/Z)—N-(2-((2-Acetylhydrazineylidene)methyl)quinolin-8-yl)-4-(trifluoromethyl)benzenesulfonamide]
MBC [1, 19]: > 256 µg/mL
MBC [1, 20]: > 256 µg/mL
MBC [2, 21]: > 256 µg/mL
MBC [2, 22]: 1 µg/mL (≈ 2.29 µM)
MIC [3, 23]: > 256 µg/mL
MIC [3, 24]: > 256 µg/mL
MBC [4, 25]: > 256 µg/mL
MBC [4, 26]: > 256 µg/mL
MIC [5, 27]: 32 µg/mL (≈ 73.3 µM)
MIC [5, 28]: 0.5 µg/mL (≈ 1.15 µM)
MIC [6, 29]: 16 µg/mL (≈ 36.7 µM)
MIC [6, 30]: 16 µg/mL (≈ 36.7 µM)

O=S(=O)(Nc1cccc2ccc(CNC(CO)CO)nc12)c1ccc(C(F)(F)F)cc1 [ZDR092, N-(2-(((1,3-Dihydroxypropan-2-yl)amino)methyl)quinolin-8-yl)-4-(trifluoromethyl)benzenesulfonamide]
MBC [1, 19]: 256 µg/mL (≈ 562 µM)
MBC [1, 20]: 32 µg/mL (≈ 70.3 µM)
MBC [2, 21]: 64 µg/mL (≈ 141 µM)
MBC [2, 22]: 8 µg/mL (≈ 17.6 µM)
MIC [3, 23]: > 256 µg/mL
MIC [3, 24]: > 256 µg/mL
MBC [4, 25]: 256 µg/mL (≈ 562 µM)
MBC [4, 26]: > 256 µg/mL
MIC [5, 27]: 64 µg/mL (≈ 141 µM)
MIC [5, 28]: 16 µg/mL (≈ 35.1 µM)
MIC [6, 29]: 32 µg/mL (≈ 70.3 µM)
MIC [6, 30]: 32 µg/mL (≈ 70.3 µM)

O=C(CNCc1ccc2cccc(NS(=O)(=O)c3ccc(C(F)(F)F)cc3)c2n1)NCCN1CCCCC1 [ZDR269, N-(2-(Piperidin-1-yl)ethyl)-2-(((8-((4-(trifluoromethyl)phenyl)sulfonamido)quinolin-2-yl)methyl)amino)acetamide di-trifluoroacetate]
MBC [1, 7]: 64 µg/mL (≈ 116 µM)
MBC [1, 8]: 128 µg/mL (≈ 233 µM)
MBC [2, 9]: 4 µg/mL (≈ 7.28 µM)
MBC [2, 10]: 16 µg/mL (≈ 29.1 µM)
MIC [3, 11]: 64 µg/mL (≈ 116 µM)
MIC [3, 12]: 64 µg/mL (≈ 116 µM)
MBC [4, 13]: 64 µg/mL (≈ 116 µM)
MBC [4, 14]: 64 µg/mL (≈ 116 µM)
MIC [5, 15]: 4 µg/mL (≈ 7.28 µM)
MIC [5, 16]: 8 µg/mL (≈ 14.6 µM)
MIC [6, 17]: 32 µg/mL (≈ 58.2 µM)
MIC [6, 18]: 64 µg/mL (≈ 116 µM)
